Measurements: publication PMC6904568, “Evaluation of binding and inhibition mechanism of dietary phytochemicals with sphingosine kinase 1: Towards targeted anticancer therapy” (Scientific Reports, 2019)
Several values for one entry are separate records, joined by “and”; a condition that tells them apart may be missing. Equal entries are not always repeated. Blank lines part the entries; values can stand above or below the compound they belong to.

Experiments:
[1] = molecular target: T1, SphK1 (Homo sapiens, UniProt Q9NYA1); assay: ATPase inhibition assay (malachite green, BIOMOL Green); assay type: biochemical; settings: 2 µM SphK1, 150 µM ATP, 25 °C; read-out: IC50 (50% of ATPase inhibition)
T1 construct: His tag; made in house; host or cells: E. coli BL21-Gold (DE3)
Protocol: ATPase activity of purified SphK1 was checked by malachite green-based (BIOMOL® Green reagent, Enzo Life sciences) microtitre-plate assay. Fixed (2 µM) amount of protein was incubated with assay buffer (20 mM Tris-HCl, pH 8.0 and 100 mM NaCl) containing 10 mM MgCl2 and increasing concentrations of ATP for 30 minutes at 25 °C. The reaction was terminated by the addition of malachite green reagent followed by incubation for 20 minutes for colour development. The absorbance of each well was measured at 620 nm on a multiplate ELISA reader. Standard phosphate curve was prepared as described by manufacturer’s protocol and used to quantity the amount of free inorganic released from ATP by kinase activity. Thereafter, ATPase inhibition assay for SphK1 was performed in the presence of compounds. Firstly, Protein (2 µM) was pre-incubated with increasing concentrations of ligand at room temperature for 60 minutes in 96-well plate. 10 mM MgCl2 and 150 µM freshly prepared ATP was then added to the reaction mixture and incubated for 30 minutes at 25 °C. To terminate the reaction, BIOMOL® reagent was added and incubated for 20 minutes followed by absorbance measurement at 620 nm. The amount of free inorganic released was determined with the help of standard phosphate curve as described. All the measurements were performed in triplicates.

[2] = molecular target: T1, SphK1; assay: Fluorescence binding studies (Trp quenching, modified Stern-Volmer); settings: for Binding constant Ka: fluorescence quenching, 25 °C, 4 µM SphK1; for Kd: from fluorescence binding constant, read-out: Dissociation constant KD
Protocol: Fluorescence quenching experiments were carried out on Jasco spectroflourimeter (FP-6200) using 5 mm quartz cuvette. The temperature was maintained at 25 ± 0.1 °C by external thermostated peltier device. Stock solution of ligands was prepared in DMSO and diluted to a working concentration of 50 µM in Tris buffer just prior to taking measurements. Protein solution (4 µM) was titrated with increasing concentrations of ligand and the fluorescence emission spectrum was recorded in the range of 300–400 nm by keeping the excitation wavelength constant at 280 nm. The excitation and emission slit widths were kept at 10 nm. The final spectra were obtained by subtracting with the corresponding blank. For data analysis, fluorescence intensity at λmax was plotted against [ligand, μM] and then modified Stern-Volmer equation (Eq. 1) was used to derive binding parameters viz., binding constant (Ka) and number of binding sites (n) per molecule of protein for ligand-SphK1 system.1 log(F0−F/F)=logKa+nlog[Q]
To validate our docking results, the binding affinity of selected natural compounds with SphK1 was calculated using fluorescence measurements. A number of molecular interactions, including formation of an excited charge-transfer complex, intersystem crossing to the triplet state, molecular rearrangements, and ground-state complex formation between the fluorophore and quencher can lead fluorescence quenching. […] 4 µM of SphK1 was titrated by the successive addition of selected natural compounds from a 1.0 mM stock solution of ligands. The intrinsic fluorescence spectra were then collected in the range of 300–400 nm by keeping the excitation wavelength at 280 nm. The concentration of ligands was varied from 0 to 50 µM to obtain the saturation point.

[3] = molecular target: T1, SphK1; assay: Isothermal titration calorimetry; assay type: binding
Protocol: Binding affinity of SphK1 to quercetin was determined by using VP-ITC microcalorimeter from MicroCal, Inc (GE, MicroCal, USA). Protein sample was prepared by extensively dialyzing it against Tris buffer (20 mM Tris-HCl, pH 8.0 and 100 mM NaCl). Stock solution of compound was diluted in the last dialyzing buffer to avoid any baseline error. Equal amount of DMSO (1.0% v/v) was added to the protein solution to prevent signal stability problems during ITC measurements. 15 µM SphK1, which was kept in the sample cell with an effective volume of 2 ml, was titrated with 750 µM of compound filled in the titration calorimetry syringe. A programmed titration was performed with a first false injection of 2 µl followed by 24 successive injections of 10 µl ligand each at 300 seconds interval. The temperature of the sample and reference cell was isothermally maintained at 25 °C, and the syringe was stirred at 307 rpm during the experiment. Heat of dilution of compound into buffer solution (no protein) was also measured and subtracted from the protein’s titration data. The binding isotherm obtained was fitted with in-built origin ‘binding site’ model to derive the thermodynamic parameters viz., stoichiometry of binding (n), enthalpy change (ΔH) and association constant (Ka).

[4] = system: A549 cells; assay: Anti-proliferative potential on lung cancer line; assay type: cell-based; settings: Homo sapiens, data not shown, read-out: IC50, growth inhibition of cancer cells
[5] = system: HEK293 cells
[6] = system: HepG2 cells; assay: Anti-proliferative potential on liver cancer line; assay type: cell-based; settings: Homo sapiens, data not shown, read-out: IC50, growth inhibition of cancer cells
[7] = ITC, 25 °C, single binding site model
[8] = ITC, 25 °C, sequential binding, site 1
[9] = ITC, 25 °C, sequential binding, site 2
[10] = ITC, 25 °C, sequential binding, site 3

T1 sequence (Q9NYA1 whole entry): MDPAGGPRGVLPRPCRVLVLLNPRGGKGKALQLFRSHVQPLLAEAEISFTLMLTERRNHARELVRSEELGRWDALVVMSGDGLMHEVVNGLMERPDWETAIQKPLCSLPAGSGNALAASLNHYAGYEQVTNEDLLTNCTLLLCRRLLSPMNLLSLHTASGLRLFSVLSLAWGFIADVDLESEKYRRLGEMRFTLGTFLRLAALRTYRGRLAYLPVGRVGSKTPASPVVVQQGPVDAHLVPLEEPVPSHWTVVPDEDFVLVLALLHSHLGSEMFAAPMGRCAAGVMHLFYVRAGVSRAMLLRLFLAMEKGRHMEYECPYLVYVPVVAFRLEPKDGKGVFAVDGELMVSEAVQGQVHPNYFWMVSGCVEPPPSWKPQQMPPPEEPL

IC50 [1]: ~27 µM and 27 µM
Binding constant Ka [2]: 15300 M⁻¹
Kd [2]: 65.4 µM
Association constant Ka [3, 7]: 102000 ± 66200 M⁻¹
Enthalpy Change ΔH [3, 7]: −1.00 × 10^4 ± 727.6 cal/mol
ΔS [3, 7]: −10.8 cal/mol/deg
Kd ([3]; ITC, 25 °C, single binding site model, read-out: Dissociation Constant KD): 9.8 µM
Compound: COc1cc(CNC(=O)CCCC/C=C/C(C)C)ccc1O [Capsaicin, capsaicin]

Compound: O=c1c(O)c(-c2ccc(O)c(O)c2)oc2cc(O)cc(O)c12 [Quercetin, quercetin]
IC50 [1]: ~2.8 µM
IC50 [4]: 55.9 µM
Binding constant Ka [2]: 438000 M⁻¹
Kd [2]: 2.28 µM
Toxicity towards normal counterparts [5]: did not impart any toxicity
Kd [3]: 125 µM
Association constant Ka1 [3, 8]: Ka1 = 5.89 × 10^4 ± 5.0 × 10^3 M^−1
Enthalpy Change ΔH1 [3, 8]: ΔH1 = −5204 ± 435 cal/mol
ΔS1 [3, 8]: ΔS1 = 4.37 cal/mol/deg
Kd ([3]; ITC, 25 °C, sequential binding, site 1, read-out: Dissociation Constant KD1): 16.9 µM
Association constant Ka2 [3, 9]: Ka2 = 2.36 × 10^5 ± 8.0 × 10^3 M^−1
Enthalpy Change ΔH2 [3, 9]: ΔH2 = −9883 ± 696 cal/mol
ΔS2 [3, 9]: ΔS2 = −8.57 cal/mol/deg
Kd ([3]; ITC, 25 °C, sequential binding, site 2, read-out: Dissociation Constant KD2): 4.2 µM
Association constant Ka3 [3, 10]: Ka3 = 1.06 × 10^4 ± 4.0 × 10^2 M^−1
Enthalpy Change ΔH3 [3, 10]: ΔH3 = 3829 ± 2.18 × 10^3 cal/mol
ΔS3 [3, 10]: ΔS3 = 32.3 cal/mol/deg
Kd ([3]; ITC, 25 °C, sequential binding, site 3, read-out: Dissociation Constant KD3): 94.3 µM
ΔS4 ([3]; ITC, 25 °C, sequential binding, site 4): ΔS4 = −294 cal/mol/deg
Kd ([3]; ITC, 25 °C, sequential binding, site 4, read-out: Dissociation Constant KD4): 10.7 µM
IC50 [6]: 49.1 µM
